# From the kinase profiling compilation of Christmann-Franck et al. (2016)
# How the values were obtained:
# Assay in all cases: KINOMEscan competition binding
# Details in all cases: compound 10.0 µM
# [1] = target: YES1 (human) (UniProt P07947)
# [2] = target: NEK2 (human) (UniProt P51955)
# [3] = target: CSNK1G2 (human) (UniProt P78368)
# [4] = target: CLK3 (human) (UniProt P49761)
# [5] = target: AKT1 (human) (UniProt P31749)
# [6] = target: CDK9 (human) (UniProt P50750)
# [7] = target: CDK7 (human) (UniProt P50613)
# [8] = target: MET (human) (UniProt P08581)
# MET (human), sequence (P08581 whole entry, looked up): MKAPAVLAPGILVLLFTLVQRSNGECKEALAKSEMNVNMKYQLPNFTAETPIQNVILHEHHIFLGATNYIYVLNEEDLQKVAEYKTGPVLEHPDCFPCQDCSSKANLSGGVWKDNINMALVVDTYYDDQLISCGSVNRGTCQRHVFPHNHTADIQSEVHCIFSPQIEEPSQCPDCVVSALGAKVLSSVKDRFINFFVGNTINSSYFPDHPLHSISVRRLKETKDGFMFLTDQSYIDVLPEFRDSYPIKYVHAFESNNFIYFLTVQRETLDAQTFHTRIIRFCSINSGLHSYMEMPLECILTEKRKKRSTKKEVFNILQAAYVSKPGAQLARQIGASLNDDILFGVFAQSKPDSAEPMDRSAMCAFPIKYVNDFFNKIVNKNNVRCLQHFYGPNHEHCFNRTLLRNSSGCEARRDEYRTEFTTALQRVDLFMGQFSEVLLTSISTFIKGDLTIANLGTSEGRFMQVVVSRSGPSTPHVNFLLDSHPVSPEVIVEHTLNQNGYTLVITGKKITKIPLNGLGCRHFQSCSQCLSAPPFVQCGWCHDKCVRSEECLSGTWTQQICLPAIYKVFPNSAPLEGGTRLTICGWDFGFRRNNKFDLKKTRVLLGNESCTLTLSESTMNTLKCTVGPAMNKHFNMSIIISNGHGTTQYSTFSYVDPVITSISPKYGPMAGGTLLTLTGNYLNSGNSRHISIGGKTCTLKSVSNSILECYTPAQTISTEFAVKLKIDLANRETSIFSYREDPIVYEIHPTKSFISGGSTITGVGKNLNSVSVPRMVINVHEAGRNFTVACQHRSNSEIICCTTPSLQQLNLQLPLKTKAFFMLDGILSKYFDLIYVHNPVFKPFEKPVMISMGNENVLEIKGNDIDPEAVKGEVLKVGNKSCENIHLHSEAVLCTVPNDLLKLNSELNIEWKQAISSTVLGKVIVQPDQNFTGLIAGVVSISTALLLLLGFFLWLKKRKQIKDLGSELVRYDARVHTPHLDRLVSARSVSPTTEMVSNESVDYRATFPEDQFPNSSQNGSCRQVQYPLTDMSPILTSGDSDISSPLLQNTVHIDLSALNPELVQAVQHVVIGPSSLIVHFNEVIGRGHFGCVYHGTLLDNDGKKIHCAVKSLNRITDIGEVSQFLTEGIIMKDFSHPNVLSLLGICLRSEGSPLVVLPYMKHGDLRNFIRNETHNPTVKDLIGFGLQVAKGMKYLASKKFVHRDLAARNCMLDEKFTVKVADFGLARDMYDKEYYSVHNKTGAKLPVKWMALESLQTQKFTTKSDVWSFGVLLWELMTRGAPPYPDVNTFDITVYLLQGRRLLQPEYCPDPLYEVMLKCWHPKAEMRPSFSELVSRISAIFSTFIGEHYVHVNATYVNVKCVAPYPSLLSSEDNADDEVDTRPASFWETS
# [9] = target: CDKL1 (human) (UniProt Q00532)
# [10] = target: MAPK9 (human) (UniProt P45984)
# MAPK9 (human), sequence (P45984 whole entry, looked up): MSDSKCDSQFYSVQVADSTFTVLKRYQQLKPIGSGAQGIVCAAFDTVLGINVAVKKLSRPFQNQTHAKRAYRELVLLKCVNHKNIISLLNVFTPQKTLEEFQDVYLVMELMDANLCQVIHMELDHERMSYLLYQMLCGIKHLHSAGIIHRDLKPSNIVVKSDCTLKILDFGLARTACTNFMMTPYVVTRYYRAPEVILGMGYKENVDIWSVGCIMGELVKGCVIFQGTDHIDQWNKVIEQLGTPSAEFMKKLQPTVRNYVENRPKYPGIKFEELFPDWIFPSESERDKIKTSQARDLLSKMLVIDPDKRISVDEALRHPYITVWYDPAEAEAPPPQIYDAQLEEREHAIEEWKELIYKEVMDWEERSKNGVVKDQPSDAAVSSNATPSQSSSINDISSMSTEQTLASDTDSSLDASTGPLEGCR
# [11] = target: RIOK1 (human) (UniProt Q9BRS2)
# [12] = target: TAOK2 (human) (UniProt Q9UL54)
# [13] = target: HUNK (human) (UniProt P57058)
# [14] = target: CDK2 (human) (UniProt P24941)
# [15] = target: FGR (human) (UniProt P09769)
# [16] = target: MAP3K5 (human) (UniProt Q99683)
# [17] = target: PTK2 (human) (UniProt Q05397)
# [18] = target: TLK2 (human) (UniProt Q86UE8)
# [19] = target: PRKCI (human) (UniProt P41743)
# [20] = target: NUAK1 (human) (UniProt O60285)
# [21] = target: RIPK2 (human) (UniProt O43353)
# [22] = target: PIM1 (human) (UniProt P11309)
# [23] = target: NEK7 (human) (UniProt Q8TDX7)
# [24] = target: YSK4 (human) (UniProt Q56UN5)
# [25] = target: ITK (human) (UniProt Q08881)
# [26] = target: MAP3K3 (human) (UniProt Q99759)
# MAP3K3 (human), sequence (Q99759 whole entry, looked up): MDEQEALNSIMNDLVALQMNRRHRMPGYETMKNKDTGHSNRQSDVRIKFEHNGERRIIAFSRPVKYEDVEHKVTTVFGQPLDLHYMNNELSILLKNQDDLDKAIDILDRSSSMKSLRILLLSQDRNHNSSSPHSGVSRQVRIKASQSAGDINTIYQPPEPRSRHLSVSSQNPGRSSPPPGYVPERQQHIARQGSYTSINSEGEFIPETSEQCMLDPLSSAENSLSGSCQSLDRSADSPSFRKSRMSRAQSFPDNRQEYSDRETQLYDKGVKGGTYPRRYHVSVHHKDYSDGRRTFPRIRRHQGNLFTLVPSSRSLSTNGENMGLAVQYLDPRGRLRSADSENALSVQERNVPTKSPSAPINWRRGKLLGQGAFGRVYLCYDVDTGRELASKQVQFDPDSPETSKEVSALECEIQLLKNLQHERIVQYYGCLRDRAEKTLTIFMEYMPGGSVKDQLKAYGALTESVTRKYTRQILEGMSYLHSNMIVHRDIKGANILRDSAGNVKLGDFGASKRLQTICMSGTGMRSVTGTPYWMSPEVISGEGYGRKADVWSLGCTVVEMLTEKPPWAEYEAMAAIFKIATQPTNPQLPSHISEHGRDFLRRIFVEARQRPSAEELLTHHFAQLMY
# [27] = target: RET (human) (UniProt P07949)
# [28] = target: PRKG2 (human) (UniProt Q13237)
# [29] = target: MYLK2 (human) (UniProt Q9H1R3)
# [30] = target: CAMK2G (human) (UniProt Q13555)
# [31] = target: IRAK3 (human) (UniProt Q9Y616)
# [32] = target: ERBB2 (human) (UniProt P04626)
# [33] = target: INSRR (human) (UniProt P14616)
# [34] = target: PIK3CA (human) (UniProt P42336)
# [35] = target: PRKCQ (human) (UniProt Q04759)
# [36] = test system: PIK3CA (human), P42336 [M1043I]
# [37] = target: PRKG1 (human) (UniProt Q13976)
# PRKG1 (human), sequence (Q13976 whole entry, looked up): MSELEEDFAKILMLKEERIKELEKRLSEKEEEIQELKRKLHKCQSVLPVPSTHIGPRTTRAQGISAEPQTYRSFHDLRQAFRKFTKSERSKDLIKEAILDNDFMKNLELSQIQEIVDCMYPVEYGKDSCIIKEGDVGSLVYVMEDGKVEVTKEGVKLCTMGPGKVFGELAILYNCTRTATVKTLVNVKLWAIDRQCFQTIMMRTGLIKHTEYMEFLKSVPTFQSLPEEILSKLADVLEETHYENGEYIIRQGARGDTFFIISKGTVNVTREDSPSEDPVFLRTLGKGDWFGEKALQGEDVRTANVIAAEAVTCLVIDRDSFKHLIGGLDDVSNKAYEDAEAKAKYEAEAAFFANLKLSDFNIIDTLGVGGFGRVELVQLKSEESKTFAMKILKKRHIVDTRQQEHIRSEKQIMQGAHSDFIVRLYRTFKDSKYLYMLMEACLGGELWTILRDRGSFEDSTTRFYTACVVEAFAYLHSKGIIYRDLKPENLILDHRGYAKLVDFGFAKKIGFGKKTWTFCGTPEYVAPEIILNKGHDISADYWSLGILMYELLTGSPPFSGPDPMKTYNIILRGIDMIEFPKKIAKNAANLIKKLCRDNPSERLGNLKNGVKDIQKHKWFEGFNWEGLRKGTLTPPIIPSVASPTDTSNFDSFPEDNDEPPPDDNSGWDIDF
# [38] = target: ULK1 (human) (UniProt O75385)
# [39] = target: AAK1 (human) (UniProt Q2M2I8)
# [40] = target: DYRK2 (human) (UniProt Q92630)
# DYRK2 (human), sequence (Q92630 whole entry, looked up): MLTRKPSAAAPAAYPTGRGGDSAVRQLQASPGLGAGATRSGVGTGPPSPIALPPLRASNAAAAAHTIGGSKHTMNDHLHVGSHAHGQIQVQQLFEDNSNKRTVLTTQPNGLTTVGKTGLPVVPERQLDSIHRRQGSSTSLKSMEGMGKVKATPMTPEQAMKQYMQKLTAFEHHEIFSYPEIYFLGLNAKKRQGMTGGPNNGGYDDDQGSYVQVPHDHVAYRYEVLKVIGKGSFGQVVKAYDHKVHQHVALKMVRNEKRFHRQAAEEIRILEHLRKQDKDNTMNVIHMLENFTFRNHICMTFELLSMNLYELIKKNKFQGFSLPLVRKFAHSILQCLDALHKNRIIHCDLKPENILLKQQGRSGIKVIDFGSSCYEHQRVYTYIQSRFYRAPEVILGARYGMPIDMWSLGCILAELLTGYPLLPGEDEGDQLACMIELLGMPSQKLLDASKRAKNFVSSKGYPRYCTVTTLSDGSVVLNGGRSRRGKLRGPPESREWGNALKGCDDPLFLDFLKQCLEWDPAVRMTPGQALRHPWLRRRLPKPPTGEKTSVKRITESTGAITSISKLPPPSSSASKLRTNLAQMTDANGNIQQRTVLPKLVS
# [41] = target: CDK3 (human) (UniProt Q00526)
# CDK3 (human), sequence (Q00526 whole entry, looked up): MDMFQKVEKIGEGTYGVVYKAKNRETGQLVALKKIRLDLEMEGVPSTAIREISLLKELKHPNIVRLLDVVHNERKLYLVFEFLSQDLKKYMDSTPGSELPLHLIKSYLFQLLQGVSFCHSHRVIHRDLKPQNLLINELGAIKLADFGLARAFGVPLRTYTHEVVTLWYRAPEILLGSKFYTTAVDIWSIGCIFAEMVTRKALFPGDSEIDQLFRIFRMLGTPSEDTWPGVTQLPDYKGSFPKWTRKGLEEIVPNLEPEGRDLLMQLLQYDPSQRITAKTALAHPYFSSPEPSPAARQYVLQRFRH
# NEK2 (human), sequence (P51955 whole entry, looked up): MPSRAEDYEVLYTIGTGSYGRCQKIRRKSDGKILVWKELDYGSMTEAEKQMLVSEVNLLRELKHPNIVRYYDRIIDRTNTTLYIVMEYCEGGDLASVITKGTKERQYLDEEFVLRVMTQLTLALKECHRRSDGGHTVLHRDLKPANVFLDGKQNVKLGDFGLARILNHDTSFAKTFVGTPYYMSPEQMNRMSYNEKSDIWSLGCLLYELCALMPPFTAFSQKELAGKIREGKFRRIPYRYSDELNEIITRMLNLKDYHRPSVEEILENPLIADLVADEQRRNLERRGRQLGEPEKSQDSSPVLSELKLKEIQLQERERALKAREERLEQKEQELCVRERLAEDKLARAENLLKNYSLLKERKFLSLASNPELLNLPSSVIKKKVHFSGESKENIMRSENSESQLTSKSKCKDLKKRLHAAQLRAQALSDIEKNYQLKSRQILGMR
# CSNK1G2 (human), sequence (P78368 whole entry, looked up): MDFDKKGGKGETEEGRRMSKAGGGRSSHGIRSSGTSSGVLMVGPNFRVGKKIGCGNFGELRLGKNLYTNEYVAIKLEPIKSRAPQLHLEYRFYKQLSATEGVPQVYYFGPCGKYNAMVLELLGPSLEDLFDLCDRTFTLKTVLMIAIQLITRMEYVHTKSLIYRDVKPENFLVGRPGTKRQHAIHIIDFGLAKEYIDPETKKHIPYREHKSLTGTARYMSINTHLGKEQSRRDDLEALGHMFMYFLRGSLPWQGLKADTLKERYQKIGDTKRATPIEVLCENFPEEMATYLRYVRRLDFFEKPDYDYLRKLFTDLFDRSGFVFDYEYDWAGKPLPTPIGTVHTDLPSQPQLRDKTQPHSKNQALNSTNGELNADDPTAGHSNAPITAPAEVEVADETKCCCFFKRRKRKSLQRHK
smiles,measurement,setting,value
COc1cc2ncnc(Nc3cccc(Cl)c3)c2cc1OC,"kinase still bound, per cent of control",[1],38%
same,"kinase still bound, per cent of control",[2],92%
same,"kinase still bound, per cent of control",[3],83%
same,"kinase still bound, per cent of control",[4],100%
same,"kinase still bound, per cent of control",[5],100%
same,"kinase still bound, per cent of control",[6],100%
same,"kinase still bound, per cent of control",[7],26%
same,"kinase still bound, per cent of control",[8],62%
same,"kinase still bound, per cent of control",[9],90%
same,"kinase still bound, per cent of control",[10],18%
same,"kinase still bound, per cent of control",[11],65%
same,"kinase still bound, per cent of control",[12],76%
same,"kinase still bound, per cent of control",[13],69%
same,"kinase still bound, per cent of control",[14],100%
same,"kinase still bound, per cent of control",[15],32%
same,"kinase still bound, per cent of control",[16],74%
same,"kinase still bound, per cent of control",[17],100%
same,"kinase still bound, per cent of control",[18],100%
same,"kinase still bound, per cent of control",[19],80%
same,"kinase still bound, per cent of control",[20],98%
same,"kinase still bound, per cent of control",[21],19%
same,"kinase still bound, per cent of control",[22],49%
same,"kinase still bound, per cent of control",[23],88%
same,"kinase still bound, per cent of control",[24],3.2%
same,"kinase still bound, per cent of control",[25],100%
same,"kinase still bound, per cent of control",[26],6.6%
same,"kinase still bound, per cent of control",[27],7%
same,"kinase still bound, per cent of control",[28],82%
same,"kinase still bound, per cent of control",[29],40%
same,"kinase still bound, per cent of control",[30],77%
same,"kinase still bound, per cent of control",[31],30%
same,"kinase still bound, per cent of control",[32],0.3%
same,"kinase still bound, per cent of control",[33],100%
same,"kinase still bound, per cent of control",[34],76%
same,"kinase still bound, per cent of control",[35],100%
same,"kinase still bound, per cent of control",[36],76%
same,"kinase still bound, per cent of control",[37],100%
same,"kinase still bound, per cent of control",[38],75%
same,"kinase still bound, per cent of control",[39],18%
same,"kinase still bound, per cent of control",[40],27%
same,"kinase still bound, per cent of control",[41],100%
